Experiments:
Conditions in all cases: Compound concentration 1.0 uM
[1] = target: Ribosomal protein S6 kinase alpha-3 (Homo sapiens) (UniProt P51812)
[2] = target: Serine/threonine-protein kinase SIK1 (Homo sapiens) (UniProt P57059)
[3] = target: Casein kinase I isoform gamma-1 (Homo sapiens) (UniProt Q9HCP0)
[4] = target: T1, Activin receptor type-1 (Homo sapiens) (UniProt Q04771)
T1 sequence (whole entry): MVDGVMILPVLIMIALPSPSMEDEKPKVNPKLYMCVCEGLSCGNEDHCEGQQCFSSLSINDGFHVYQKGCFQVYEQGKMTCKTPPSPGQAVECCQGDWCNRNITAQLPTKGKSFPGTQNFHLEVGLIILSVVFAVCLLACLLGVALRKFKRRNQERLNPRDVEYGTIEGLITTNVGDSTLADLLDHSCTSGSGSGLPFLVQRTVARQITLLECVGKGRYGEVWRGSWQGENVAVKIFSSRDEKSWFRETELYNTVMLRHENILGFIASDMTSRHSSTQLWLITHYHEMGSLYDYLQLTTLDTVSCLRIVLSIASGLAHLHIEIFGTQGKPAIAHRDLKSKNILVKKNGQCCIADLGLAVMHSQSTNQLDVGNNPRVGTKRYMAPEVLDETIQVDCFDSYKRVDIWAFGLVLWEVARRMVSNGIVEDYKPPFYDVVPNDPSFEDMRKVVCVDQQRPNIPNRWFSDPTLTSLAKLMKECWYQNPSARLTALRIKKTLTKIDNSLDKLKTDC

[5] = target: Ephrin type-A receptor 7 (Homo sapiens) (UniProt Q15375)
[6] = target: Protein-tyrosine kinase 2-beta (Homo sapiens) (UniProt Q14289)
[7] = target: T2, Myosin-IIIb (Homo sapiens) (UniProt Q8WXR4)
T2 sequence (whole entry): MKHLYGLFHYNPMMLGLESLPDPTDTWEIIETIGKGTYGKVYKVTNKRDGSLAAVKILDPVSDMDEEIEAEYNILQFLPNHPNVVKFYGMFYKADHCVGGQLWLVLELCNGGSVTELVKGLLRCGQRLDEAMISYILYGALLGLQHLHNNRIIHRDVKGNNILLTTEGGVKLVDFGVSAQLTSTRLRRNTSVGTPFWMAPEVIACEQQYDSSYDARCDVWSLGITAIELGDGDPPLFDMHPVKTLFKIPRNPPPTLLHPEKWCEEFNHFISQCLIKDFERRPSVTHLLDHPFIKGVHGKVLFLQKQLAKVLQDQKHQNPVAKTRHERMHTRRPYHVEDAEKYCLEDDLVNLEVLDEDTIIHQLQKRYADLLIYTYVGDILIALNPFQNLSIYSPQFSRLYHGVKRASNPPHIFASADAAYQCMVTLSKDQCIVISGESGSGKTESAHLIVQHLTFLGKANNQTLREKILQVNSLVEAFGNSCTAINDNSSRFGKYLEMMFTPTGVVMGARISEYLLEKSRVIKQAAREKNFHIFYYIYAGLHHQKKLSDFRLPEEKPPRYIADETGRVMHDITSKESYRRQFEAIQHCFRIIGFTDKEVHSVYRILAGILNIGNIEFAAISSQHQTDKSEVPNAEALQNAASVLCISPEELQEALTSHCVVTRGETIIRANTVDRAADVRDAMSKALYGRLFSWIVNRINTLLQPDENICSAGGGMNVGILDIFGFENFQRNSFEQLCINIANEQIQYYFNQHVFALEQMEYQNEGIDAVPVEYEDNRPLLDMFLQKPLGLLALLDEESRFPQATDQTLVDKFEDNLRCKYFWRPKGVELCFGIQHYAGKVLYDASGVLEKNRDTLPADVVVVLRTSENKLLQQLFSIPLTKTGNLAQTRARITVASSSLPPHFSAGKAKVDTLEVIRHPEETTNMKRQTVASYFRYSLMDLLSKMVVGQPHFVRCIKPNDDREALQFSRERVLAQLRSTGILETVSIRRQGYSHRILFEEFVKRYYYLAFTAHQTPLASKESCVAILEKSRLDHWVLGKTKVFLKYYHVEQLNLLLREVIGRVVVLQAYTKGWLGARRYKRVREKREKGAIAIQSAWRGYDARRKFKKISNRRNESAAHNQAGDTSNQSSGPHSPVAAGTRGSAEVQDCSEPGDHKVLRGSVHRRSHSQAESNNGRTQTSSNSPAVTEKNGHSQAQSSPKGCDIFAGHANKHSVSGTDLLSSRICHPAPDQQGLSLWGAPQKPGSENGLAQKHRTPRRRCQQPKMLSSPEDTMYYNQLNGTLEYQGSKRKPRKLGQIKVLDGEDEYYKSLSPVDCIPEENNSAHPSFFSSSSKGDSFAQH

[8] = target: Tyrosine-protein kinase Srms (Homo sapiens) (UniProt Q9H3Y6)
[9] = target: Serine-protein kinase ATM (Homo sapiens) (UniProt Q13315)
[10] = target: Testis-specific serine/threonine-protein kinase 4 (Homo sapiens) (UniProt Q6SA08)
[11] = target: T3, Aurora kinase C (Homo sapiens) (UniProt Q9UQB9)
T3 sequence (whole entry): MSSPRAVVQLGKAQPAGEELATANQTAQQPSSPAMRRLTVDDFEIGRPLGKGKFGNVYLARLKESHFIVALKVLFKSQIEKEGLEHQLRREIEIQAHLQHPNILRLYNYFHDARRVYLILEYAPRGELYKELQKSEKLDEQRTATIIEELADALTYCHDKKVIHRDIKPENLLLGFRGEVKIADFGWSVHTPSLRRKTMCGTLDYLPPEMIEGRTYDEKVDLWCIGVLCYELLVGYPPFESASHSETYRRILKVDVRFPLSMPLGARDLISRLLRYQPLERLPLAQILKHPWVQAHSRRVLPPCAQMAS

[12] = target: Proto-oncogene tyrosine-protein kinase ROS (Homo sapiens) (UniProt P08922)

Measured: % residual kinase activity

Sequence of Ribosomal protein S6 kinase alpha-3 (Homo sapiens) (P51812 whole entry): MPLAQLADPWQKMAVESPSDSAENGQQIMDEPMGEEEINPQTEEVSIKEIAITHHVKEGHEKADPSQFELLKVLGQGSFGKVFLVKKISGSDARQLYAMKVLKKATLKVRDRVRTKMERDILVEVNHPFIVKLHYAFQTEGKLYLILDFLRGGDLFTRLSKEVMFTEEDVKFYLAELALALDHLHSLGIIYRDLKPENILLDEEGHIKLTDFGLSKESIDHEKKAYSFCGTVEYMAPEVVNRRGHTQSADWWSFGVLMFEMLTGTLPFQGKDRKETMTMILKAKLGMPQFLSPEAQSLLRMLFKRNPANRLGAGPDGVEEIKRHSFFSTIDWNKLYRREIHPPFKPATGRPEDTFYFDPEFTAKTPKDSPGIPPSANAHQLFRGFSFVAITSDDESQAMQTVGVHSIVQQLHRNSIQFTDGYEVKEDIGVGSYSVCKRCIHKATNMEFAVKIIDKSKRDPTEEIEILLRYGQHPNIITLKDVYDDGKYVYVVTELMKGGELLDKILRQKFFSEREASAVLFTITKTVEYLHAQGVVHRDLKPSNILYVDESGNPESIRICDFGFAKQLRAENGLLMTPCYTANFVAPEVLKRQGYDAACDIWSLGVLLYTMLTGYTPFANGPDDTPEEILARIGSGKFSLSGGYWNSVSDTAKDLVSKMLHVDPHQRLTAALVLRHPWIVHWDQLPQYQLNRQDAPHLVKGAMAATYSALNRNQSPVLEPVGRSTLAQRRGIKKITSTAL
Sequence of Tyrosine-protein kinase Srms (Homo sapiens) (Q9H3Y6 whole entry): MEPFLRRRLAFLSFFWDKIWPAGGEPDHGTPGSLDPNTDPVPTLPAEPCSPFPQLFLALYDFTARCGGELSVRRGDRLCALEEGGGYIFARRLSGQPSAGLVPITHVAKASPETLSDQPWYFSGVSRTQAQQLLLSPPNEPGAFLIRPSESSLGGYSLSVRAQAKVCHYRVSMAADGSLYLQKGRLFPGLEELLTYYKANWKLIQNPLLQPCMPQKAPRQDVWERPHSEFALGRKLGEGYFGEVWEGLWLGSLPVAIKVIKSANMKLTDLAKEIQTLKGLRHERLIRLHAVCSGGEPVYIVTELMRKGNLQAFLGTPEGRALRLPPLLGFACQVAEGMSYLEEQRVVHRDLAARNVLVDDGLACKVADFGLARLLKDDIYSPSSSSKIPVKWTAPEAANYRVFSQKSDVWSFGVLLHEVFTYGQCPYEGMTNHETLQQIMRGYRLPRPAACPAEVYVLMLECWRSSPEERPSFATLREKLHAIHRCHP
Sequence of Serine/threonine-protein kinase SIK1 (Homo sapiens) (P57059 whole entry, canonical isoform): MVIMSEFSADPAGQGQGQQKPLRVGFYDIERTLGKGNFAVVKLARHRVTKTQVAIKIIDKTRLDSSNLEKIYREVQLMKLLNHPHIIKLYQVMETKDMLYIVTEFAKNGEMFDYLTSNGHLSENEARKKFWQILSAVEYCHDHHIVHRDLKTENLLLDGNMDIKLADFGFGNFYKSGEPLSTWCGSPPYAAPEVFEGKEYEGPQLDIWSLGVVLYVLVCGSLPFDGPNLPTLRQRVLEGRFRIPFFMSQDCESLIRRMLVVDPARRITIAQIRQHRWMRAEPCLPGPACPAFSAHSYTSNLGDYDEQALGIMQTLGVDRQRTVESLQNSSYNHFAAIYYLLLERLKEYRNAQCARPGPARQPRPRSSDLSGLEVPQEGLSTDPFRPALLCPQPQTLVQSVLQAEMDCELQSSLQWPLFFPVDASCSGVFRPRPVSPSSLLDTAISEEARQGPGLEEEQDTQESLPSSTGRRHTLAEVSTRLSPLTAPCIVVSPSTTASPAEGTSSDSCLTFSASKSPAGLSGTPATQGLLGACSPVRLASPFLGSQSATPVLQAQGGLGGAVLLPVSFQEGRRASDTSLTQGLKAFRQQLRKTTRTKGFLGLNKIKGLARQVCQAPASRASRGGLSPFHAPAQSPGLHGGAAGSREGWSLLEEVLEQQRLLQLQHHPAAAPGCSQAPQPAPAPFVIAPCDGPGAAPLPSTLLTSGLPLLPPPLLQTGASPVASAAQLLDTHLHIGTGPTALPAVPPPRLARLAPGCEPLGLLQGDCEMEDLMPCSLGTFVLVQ
Sequence of Ephrin type-A receptor 7 (Homo sapiens) (Q15375 28-998 limits assumed): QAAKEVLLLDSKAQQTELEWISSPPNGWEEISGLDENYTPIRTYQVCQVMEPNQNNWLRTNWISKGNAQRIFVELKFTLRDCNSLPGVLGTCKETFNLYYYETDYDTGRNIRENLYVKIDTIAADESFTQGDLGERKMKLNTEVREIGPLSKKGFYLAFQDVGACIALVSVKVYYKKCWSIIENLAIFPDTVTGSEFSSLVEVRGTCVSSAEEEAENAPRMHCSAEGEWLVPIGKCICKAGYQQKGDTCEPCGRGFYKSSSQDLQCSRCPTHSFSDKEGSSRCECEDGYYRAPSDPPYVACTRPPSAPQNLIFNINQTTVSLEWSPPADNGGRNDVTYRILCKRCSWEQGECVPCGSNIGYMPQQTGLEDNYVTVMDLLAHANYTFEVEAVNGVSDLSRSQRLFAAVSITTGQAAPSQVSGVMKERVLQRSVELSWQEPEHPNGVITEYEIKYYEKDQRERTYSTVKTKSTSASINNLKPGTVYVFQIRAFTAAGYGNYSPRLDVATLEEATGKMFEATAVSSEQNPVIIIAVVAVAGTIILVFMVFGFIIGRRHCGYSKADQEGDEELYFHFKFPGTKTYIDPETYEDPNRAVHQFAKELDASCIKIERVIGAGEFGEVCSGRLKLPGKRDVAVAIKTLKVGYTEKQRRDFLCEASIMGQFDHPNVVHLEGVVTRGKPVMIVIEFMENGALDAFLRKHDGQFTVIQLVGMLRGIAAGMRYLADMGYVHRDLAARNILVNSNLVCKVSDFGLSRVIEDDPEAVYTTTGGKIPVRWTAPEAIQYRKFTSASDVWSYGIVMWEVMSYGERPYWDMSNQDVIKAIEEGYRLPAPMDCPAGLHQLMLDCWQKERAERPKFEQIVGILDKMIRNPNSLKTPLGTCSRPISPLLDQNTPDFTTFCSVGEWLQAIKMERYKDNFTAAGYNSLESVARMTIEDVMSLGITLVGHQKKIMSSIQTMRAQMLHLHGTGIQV
Sequence of Protein-tyrosine kinase 2-beta (Homo sapiens) (Q14289 whole entry, looked up): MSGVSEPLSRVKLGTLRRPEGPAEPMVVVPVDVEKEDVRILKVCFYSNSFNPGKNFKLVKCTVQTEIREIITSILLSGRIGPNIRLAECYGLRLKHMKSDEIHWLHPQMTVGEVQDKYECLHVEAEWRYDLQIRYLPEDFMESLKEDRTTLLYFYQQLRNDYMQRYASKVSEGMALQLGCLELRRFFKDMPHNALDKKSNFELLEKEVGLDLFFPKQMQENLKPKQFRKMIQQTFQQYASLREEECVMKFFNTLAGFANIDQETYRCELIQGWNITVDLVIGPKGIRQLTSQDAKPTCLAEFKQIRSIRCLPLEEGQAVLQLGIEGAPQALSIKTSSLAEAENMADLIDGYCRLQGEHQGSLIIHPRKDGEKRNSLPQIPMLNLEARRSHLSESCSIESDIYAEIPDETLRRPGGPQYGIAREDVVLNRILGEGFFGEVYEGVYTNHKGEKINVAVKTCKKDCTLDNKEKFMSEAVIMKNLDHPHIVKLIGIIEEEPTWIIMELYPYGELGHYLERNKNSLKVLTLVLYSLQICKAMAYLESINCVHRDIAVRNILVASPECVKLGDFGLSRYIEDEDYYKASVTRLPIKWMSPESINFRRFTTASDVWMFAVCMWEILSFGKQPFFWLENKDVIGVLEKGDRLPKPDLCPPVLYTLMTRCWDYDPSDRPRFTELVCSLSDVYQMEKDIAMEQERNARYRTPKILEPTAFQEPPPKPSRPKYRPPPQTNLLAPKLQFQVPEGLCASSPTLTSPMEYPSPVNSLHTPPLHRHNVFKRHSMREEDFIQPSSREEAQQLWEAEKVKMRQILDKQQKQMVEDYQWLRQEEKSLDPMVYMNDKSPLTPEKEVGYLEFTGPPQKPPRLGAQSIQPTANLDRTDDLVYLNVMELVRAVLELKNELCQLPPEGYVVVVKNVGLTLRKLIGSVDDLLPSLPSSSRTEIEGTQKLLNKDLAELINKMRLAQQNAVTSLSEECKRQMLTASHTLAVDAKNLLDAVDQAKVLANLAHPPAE
Sequence of Testis-specific serine/threonine-protein kinase 4 (Homo sapiens) (Q6SA08 whole entry): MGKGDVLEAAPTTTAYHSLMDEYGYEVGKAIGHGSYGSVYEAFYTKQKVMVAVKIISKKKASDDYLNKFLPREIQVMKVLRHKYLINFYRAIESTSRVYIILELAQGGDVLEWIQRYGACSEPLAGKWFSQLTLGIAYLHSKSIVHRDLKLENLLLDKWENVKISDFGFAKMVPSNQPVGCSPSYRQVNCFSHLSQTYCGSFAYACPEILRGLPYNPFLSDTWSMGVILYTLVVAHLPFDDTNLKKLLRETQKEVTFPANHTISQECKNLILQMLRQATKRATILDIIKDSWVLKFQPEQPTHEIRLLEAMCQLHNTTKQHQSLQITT
Sequence of Casein kinase I isoform gamma-1 (Homo sapiens) (Q9HCP0 whole entry, looked up, canonical isoform): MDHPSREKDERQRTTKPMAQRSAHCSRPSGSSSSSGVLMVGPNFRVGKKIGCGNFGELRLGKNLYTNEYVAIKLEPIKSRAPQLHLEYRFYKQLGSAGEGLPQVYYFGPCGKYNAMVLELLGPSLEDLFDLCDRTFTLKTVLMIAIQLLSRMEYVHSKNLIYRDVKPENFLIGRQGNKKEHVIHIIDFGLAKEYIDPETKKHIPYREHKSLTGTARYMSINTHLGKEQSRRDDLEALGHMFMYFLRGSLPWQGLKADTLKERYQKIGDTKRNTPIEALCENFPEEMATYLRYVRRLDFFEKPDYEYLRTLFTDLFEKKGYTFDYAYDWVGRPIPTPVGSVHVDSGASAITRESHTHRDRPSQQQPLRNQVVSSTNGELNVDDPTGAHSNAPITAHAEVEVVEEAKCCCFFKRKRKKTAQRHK

CN1CCN(c2cnc3c(C4CCN(C(=O)c5ccc(OC(F)(F)F)cc5N)CC4)ncnc3c2)CC1 [BAY-885]
inactive: [1] 109% | [2] 99% | [3] 105% | [4] 98% | [5] 92% | [6] 103% | [7] 111% | [8] 81% | [9] 107% | [10] 115% | [11] 95% | [12] 111%

Reference: ChEMBL document CHEMBL4507268 (2021)
